# “And” between values parts separate entries of the source, which are not always exact repeats. Equal values may be shown once.
# What was measured:
# BenM^H110R, F211V, Y286N = target: T1, BenM^H110R, F211V, Y286N (Acinetobacter baylyi, UniProt O68014, F211V/H110R/Y286N); assay: CCM biosensor output versus CCM titers in CCM-producing yeast strains (HPLC, flow cytometry); format: cell-based
# T1 construct: expressed in transfected cells; host or cells: Saccharomyces cerevisiae; centromeric plasmid (gap repair) or chromosomal integration, REV1p
# Description: The CCM production strains were cultivated in 24-deep well plate with air-penetrable lids (EnzyScreen) to test for the production of CCM. Colonies from the individual strain were inoculated in 1 mL synthetic drop-out medium (Sigma-Aldrich), selecting for URA, HIS and LEU markers, and grown at 30° C. with 250 rpm agitation at 5 cm orbit cast for 24 h. 300 μL of the overnight cultures were used to inoculate 3 mL mineral medium (pH 4.5) in 24-deep well plate and incubated for 24-72 h at the same conditions as above. Experiments were performed in triplicates. The culture broth was centrifuged 3,500×rpm and the supernatant analyzed for CCM concentration using HPLC. For this purpose, samples were analyzed for 45 min using Aminex HPX-87H ion exclusion column with a 1 mM H2SO4 flow of 0.6 mL/min. The temperature of the column was 60° C. Refractive index and UV detectors (Dionex) were used for detection of CCM (250 nm). CCM concentrations were quantified by comparison with the spectrum of the standards. […] Naringenin was quantified using a quadratic calibration curve with authentic standards ranging from 0.039 mg/I to 20 mg/I using QuanLynx software (Waters).
# Events were analyzed using FlowJo software (TreeStar Inc.). […]
# S. cerevisiae cells = assay: Transport assay: uptake of CCM by yeast cells (LC-MS); format: cell-based, Saccharomyces cerevisiae; details: pH 4.5, 24 h
# Description: Overnight grown CEN.PK113-5A cells were diluted (OD600=0.1) into SC-HIS-LEU medium with or without 1.4 mM (200 mg/L) CCM. Media samples were taken at both 0 h and 24 h, while samples for measuring cellular lysates (10^8 cells) were harvested at 24 h. For quantification of CCM by LC-MS, cultures were harvested by centrifugation. For extracellular CCM quantification the supernatant was centrifuged twice and filtered (0.2 μm) before analysis. For intracellular CCM quantification harvested pellets were washed twice in ice-cold isotonic saline solution (0.9% NaCl) and centrifuged at 5,000×g before cells were extracted in an aqueous 0.1% formic acid solution and sonicated for 15 min. Following this, samples were centrifuged at 13,000×g and supernatants filtered (0.2 μm) prior to analysis. LC-MS data was collected on EVOQ EliteTriple Quadrupole Mass Spectrometer system coupled with an Advance UHPLC (Bruker). Samples were held at 4° C. during the analysis. A 1 μL sample was injected onto a ACQUITY HSS T3 C18 UHPLC column (Waters), with a 1.8 μm particle size and 2.1×100 mm dimensioning. The column was held at a temperature of 30° C. […] Two transitions were chosen in negative Multiple Reaction Monitoring (MRM) mode for quantification of CCM: m/z 141.70-96.80 (quantification transition) and m/z 141.70-53.1 (confirmation transition). […]
# T1 sequence (O68014 whole entry H110R/F211V/Y286N): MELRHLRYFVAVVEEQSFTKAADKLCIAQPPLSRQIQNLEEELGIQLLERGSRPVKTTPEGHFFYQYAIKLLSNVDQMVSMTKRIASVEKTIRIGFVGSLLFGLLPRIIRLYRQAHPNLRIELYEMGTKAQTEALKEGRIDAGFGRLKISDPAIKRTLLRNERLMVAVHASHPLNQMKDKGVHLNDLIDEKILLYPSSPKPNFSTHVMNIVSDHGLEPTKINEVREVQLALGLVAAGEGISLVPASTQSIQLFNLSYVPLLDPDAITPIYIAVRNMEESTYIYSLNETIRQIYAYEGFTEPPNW
smiles,measurement,setting,value
"O=C(O)/C=C\C=C/C(=O)O [CCM, cis, cis-muconic acid]",titers at which GFP outputs were saturated,"BenM^H110R, F211V, Y286N; 72 h of cultivation",> 1.41 mM and > 200 mg/L
same,correlation (r) between GFP output and CCM production titers,"BenM^H110R, F211V, Y286N; six CCM production strains and null strain, 24 h",0.98
same,uptake of CCM by yeast,S. cerevisiae cells,directly taken up

# Reference: patent publication US20190185865A1, “USE OF PROKARYOTIC TRANSCRIPTIONAL ACTIVATORS AS METABOLITE BIOSENSORS IN EUKARYOTIC CELLS” (Danmarks Tekniske Universitet, priority 2016, published 2019)
